Laboratory results as given in US8096419B2, “Compound” (PCI Biotech AS, priority 2001, dated 2012).
Entries after “also recorded” stand apart in the source; their conditions may differ.

What was measured:
[1] = Absorption spectra on photochemical reduction of TPPS2a; assay type: physicochemical; conditions: benzene/TEA, peak shifted from 646 nm to 655 nm
Experimental: A mixture of 950 μl benzene/triethylamine (TEA) (18:7), 32 μl dimethyl sulfoxide (DMSO) and 18 μl TPPS2a (from a solution of 1 mg/ml in DMSO) was prepared and saturated with nitrogen for 5 min in a 1 ml cuvette. The mixture was then exposed to light from a 500 W high pressure Xenon lamp fitted to a Bausch and Lomb grating monochromator. The cuvette was exposed to 545±15 nm light at 15 W/m^2. The fluence rate was monitored by means of a UDT 11 A photodetector with a 223 radiometric filter. The absorption spectra was measured regularly by a Perkin-Elmer Lambda 15 UV/VIS spectrophotometer. The light pass was 1 cm.
In accordance with the method described by Harel et al. (Photochem. Photobiol. 23: 337-341, 1976), TPPS2a was exposed to light in a solution of triethylamine (TEA) in benzene saturated with nitrogen. The solution was exposed to light of 545 nm in a cuvette as described above in “Materials and Methods”.

[2] = tested on: V79 cells; test: Cell survival by colony-forming test after photosensitizer and light; assay type: cell-based, Chinese hamster
Experimental: (§1) Cells of the established line V79 (ATCC CCL-93) derived from Chinese hamster lung fibroblasts were used. The cells were grown in MEM medium containing 10% foetal calf serum (FCS from Gibco, Paisley, UK), 100 U ml^−1 penicillin and 100 μg ml^−1 streptomycin (Gibco) at 37° C. in an incubator flushed with 5% CO2 in air. The cells were subcultured twice a week.
The cells were inoculated in 25 cm^2 flasks (Nunclon, Denmark) containing MEM medium with 10% FCS and left at 37° C. for 4-5 hours for proper attachment to the substratum. Subsequently, the cells were washed 3 times with medium and exposed to 1 μg/ml TPPS2a or TPCS2a in serum-containing medium for 18 hours. The cells were subsequently washed 3 times with the sensitizer-free medium and incubated for 1 hour before light exposure. The cells were then exposed to red light (Phillips TL 20 W/09) filtered through a Cinemoid 35 filter or blue light (Appl. Photophysics, Nood. 3026, London). […]
Cell survival was measured by the colony-forming test as described by Berg et al. (Photochem. Photobiol. 53: 203-210, 1991). […] The cells were then fixed in ethanol, stained with methylene blue and the colonies counted. Inhibition of protein synthesis was assessed by [^3H]-leucine incorporation into proteins, measured at 24 hours post light exposure as described by Llorente et al. (FEBS Lett. 431: 200-204, 1998).

[3] = tested on: V79 cells; test: Inhibition of protein synthesis by [3H]-leucine incorporation (PCI of gelonin); assay type: cell-based, Chinese hamster
Experimental: as §1
The cells were inoculated in 25 cm^2 flasks (Nunclon, Denmark) containing MEM medium with 10% FCS and left at 37° C. for 4-5 hours for proper attachment to the substratum. Subsequently, the cells were washed 3 times with medium and exposed to 1 μg/ml TPPS2a or TPCS2a in serum-containing medium for 18 hours. The cells were subsequently washed 3 times with the sensitizer-free medium and incubated for 1 hour before light exposure. The cells were then exposed to red light (Phillips TL 20 W/09) filtered through a Cinemoid 35 filter or blue light (Appl. Photophysics, Nood. 3026, London). The fluence rates reaching the cells were 1.35 mW/cm^2 and 1.5 mW/cm^2 from the red and the blue lamps respectively.
Cell survival was measured by the colony-forming test as described by Berg et al. (Photochem. Photobiol. 53: 203-210, 1991). 1500 cells were inoculated in 25 cm^2 plastic tissue-culture flasks and treated with the photosensitizer and light as described above. After photochemical treatment the V79 cells were left for 5 days at 37° C. in serum-containing culture medium to allow for formation of countable colonies. The cells were then fixed in ethanol, stained with methylene blue and the colonies counted. Inhibition of protein synthesis was assessed by [^3H]-leucine incorporation into proteins, measured at 24 hours post light exposure as described by Llorente et al. (FEBS Lett. 431: 200-204, 1998).

[4] = tested on: V79 cells; conditions: Berg et al. Cancer Res. 59: 1180-1183, 1999; cited from earlier work

Substance	increase in the extinction coefficient of band I of the Q-bands versus TPPS2a [1] [fold]	sensitivity of treated cells to photoinactivation with blue light relative to TPPS2a ([2]; 18 hours incubation with sensitizer, 1 hour sensitizer-free medium, blue light, versus TPPS2a)	reduction induced by TPCS2a alone in the clonogenicity assay ([2]; TPCS2a alone)	potentiation of the cytotoxicity of gelonin by TPCS2a and light ([3]; 1 μg/ml TPCS2a plus 1 μg/ml gelonin, red light, protein synthesis 24 hours after exposure to light)	reduction in protein synthesis induced by TPCS2a alone ([3]; 1 μg/ml TPCS2a, without gelonin) [%]	toxicity of gelonin alone or in combination with light (literature) [4]	reduction of protein synthesis by gelonin alone ([3]; 1 μg/ml gelonin for 18 hours)
Tetraphenyl chlorin disulfonate [TPCS2a]	5.8	equally sensitive; also recorded: equally efficient	not observed	strongly potentiate	20	–	–
gelonin: type I ribosome-inactivating protein toxin, transfer molecule for PCI	–	–	–	–	–	low toxicity	about 10%
